For the assay, the target named is HPK1 (Homo sapiens (Human), UniProt Q92918). The assay can be described thus: HPK1 Kinase Binding Assay. As to conditions: LanthaScreen tracer 222 binding, active HPK1, 1 h at 25° C. On the procedure: A stock solution of 1 mM test compound was prepared in DMSO. The compound plate was prepared by 3-fold and 11-point serial dilutions. 0.1 μL of the compound in DMSO was transferred from the compound plate to the white 384 well polystyrene plates. The assay buffer contained 50 mM HEPES, pH 7.5, 0.01% Tween-20, 5 mM MgCl2, 0.01% BSA, and 5 mM DTT. 5 μL of 4 nM active HPK1 (SignalChem M23-11G) prepared in the buffer was added to the plate. The enzyme concentration given was based on the given stock concentration reported by the vender. […] After one hour incubation at 25° C., the plates were read on a PHERAstar FS plate reader (BMG Labtech). Ki values were determined.
Sequence of HPK1 (Q92918 1-346 limits assumed): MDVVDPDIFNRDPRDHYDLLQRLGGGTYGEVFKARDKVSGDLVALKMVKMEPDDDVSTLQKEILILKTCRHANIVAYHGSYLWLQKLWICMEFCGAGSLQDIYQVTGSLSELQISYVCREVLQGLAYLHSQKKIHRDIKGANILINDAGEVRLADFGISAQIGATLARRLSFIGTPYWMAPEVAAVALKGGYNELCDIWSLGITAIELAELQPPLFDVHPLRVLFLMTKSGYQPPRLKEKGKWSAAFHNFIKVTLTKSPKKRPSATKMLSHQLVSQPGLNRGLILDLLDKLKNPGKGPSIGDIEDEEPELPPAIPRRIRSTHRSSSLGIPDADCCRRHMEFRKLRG

Structures are written as SMILES. pKi: −log10 of the molar value.

As for `COc1cccc(F)c1-c1nccc(C(=O)Nc2cc(F)c3nn(C)cc3c2N2CCC[C@@H]2CN)n1` (single isomer, unassigned; peak 1) [10, Peak 1], the pKi was over 7.00.

The pKi is the Ki on a negative log10 scale, so that one unit is a factor of ten. A higher pKi goes with a small Ki.

Source of the values: patent publication US11492354B2, “Indazole compounds and uses thereof” (Incyte Corporation, priority 2018, dated 2022).
